Measurements as given in patent publication US12460184B2, “Cell primed with CTGF-D4 and insulin or IGF-1 and use in methods for cardiac tissue repair” (University of Vermont and State Agriculture College, priority 2013, dated 2025).

What was measured:
[1] = system: adult rat CPCs; experiment: Signal transduction inhibitor studies, CPCs cultured in CdM; assay type: cell-based; settings: for cell number ratio to control cell number: CPCs in MSC CdM, 48 hrs, control CdM+DMSO = 100%
Description: (§1) Adult rat CPCs and cardiac fibroblasts were plated at 500 cells/cm^2 and cultured in their respective growth mediums. Three days after plating, the medium was removed, the wells were washed twice with PBS, and the cells were then exposed to CdM or to fresh serum-free medium (Alpha-MEM). For time course proliferation studies, CdM and serum-free medium were changed every 2 days. In signal transduction inhibitor studies, the following pharmacological inhibitors were used: AG490, inhibitor of Jak2/STAT3 pathway; Stattic, inhibitor of STAT3; LY294002, inhibitor of phosphatidylinositol 3-kinase (PI3K)/Akt pathway; and PD98059, inhibitor of extracellular signal-regulated kinase (ERK). All of the inhibitors were purchased from Calbiochem (Darmstadt, Germany) and were dissolved in dimethyl sulfoxide (DMSO). CPCs were cultured in CdM with the inhibitors or with the equivalent volume of DMSO as a control for 48 hrs. In cell protection studies, 3 days after plating, medium was replaced with either the CdM or serum-free medium and the cells were exposed to hypoxia in a specialized incubator (1% oxygen) for 48 hrs. The hypoxia incubator was a model that measured both CO2 and O2 (Thermo Electron, Forma Series II, model 3130). Oxygen was maintained at 1% by the injection of nitrogen gas and was monitored continuously. Cell numbers were quantified by the fluorescent labeling of nucleic acids (CyQuant dye; Molecular Probes, Carlsbad, CA) and with a microplate fluorescence reader (FL×800; Bio-Tek Instruments Inc., Winooski, VT) set to 480 nm excitation and 520 nm emission. Each experiment was repeated a minimum of 3 times.

[2] = system: adult rat CPCs; experiment: CPC protection during hypoxia (1% oxygen, 48 hrs); assay type: cell-based; settings: for CdM-mediated protection of CPCs under hypoxic conditions: STAT3 inhibitor 10 μM added to CdM; for CPC number after hypoxia: 30 ng/ml alone, control SFM with 1% BSA 9004 cells, mean±SD; for protection of CPCs against 48 hr of hypoxia: 1 ng/ml (each) in SFM
Description: as §1, with “continuously.” for “continuously. Cell numbers were quantified by the fluorescent labeling of nucleic acids (CyQuant dye; Molecular Probes, Carlsbad, CA) and with a microplate fluorescence reader (FL×800; Bio-Tek Instruments Inc., Winooski, VT) set to 480 nm excitation and 520 nm emission. Each experiment was repeated a minimum of 3 times.”
Cell numbers were quantified by the fluorescent labeling of nucleic acids (CyQuant dye; Molecular Probes, Carlsbad, CA) and with a microplate fluorescence reader (FL×800; Bio-Tek Instruments Inc., Winooski, VT) set to 480 nm excitation and 520 nm emission. Each experiment was repeated a minimum of 3 times.

[3] = system: Akt; experiment: Immunoblotting for phosphorylated Akt in CPCs; assay type: cell-based, rat; settings: recombinant human Insulin, 30 min incubation
Description: (§2) Cells were lysed in a buffer that consisted of 0.1% sodium dodecyl sulphate (SDS) and complete protease inhibitor cocktail (Roche, Basel, Switzerland) in PBS. Protein concentration was determined by the DC protein assay (Biorad, Hercules, CA). Twenty μg of protein was separated by SDS-PAGE. After electrophoresis, the gels were electroblotted to polyvinylidene difluoride (PVDF) membranes. All electrophoresis and electroblotting used Novex reagents and systems (Invitrogen, Carlsbad, Calif.). The blots were blocked for 1 hr at RT in 5% nonfat dry milk in PBS with 0.1% Tween 20 (PBST), washed 3×5 min in PBST, and incubated in primary antibodies in PBST with 5% BSA overnight at 4° C. After 3×5 min washes in PBST, the blots were incubated in secondary antibody conjugated to horseradish peroxidase conjugate (1:2000, Sigma) in PBST for 1 hr at RT. Unbound secondary antibody was removed and positive bands were detected with a chemiluminescent reaction. The primary antibodies for immunoblotting were Ki67 (clone SP6, 1:200, Abcam, Cambridge, MA); p-STAT3 (Tyr705, 1:1000), total STAT3 (1:1000), p-Akt (Ser 473, 1:1000)(Cell signaling); and β-actin (1:5000, Sigma).

[4] = system: STAT3; experiment: Immunoblotting for phosphorylated STAT3 in CPCs; assay type: cell-based, rat; settings: 3 ng/ml, 30 min, SFM containing 1% BSA
Description: as §2

[5] = system: canonical Wnt pathway; experiment: Canonical Wnt pathway signaling in EPDCs (p-GSK3β, nuclear β-catenin); assay type: cell-based, rat
[6] = system: EPDCs; experiment: Western blots for differentiation and adhesion/migration markers in EPDCs; assay type: cell-based; settings: exposure to CTGF-D4
[7] = system: EPDCs; experiment: Ex vivo adhesion assay of EPDCs to fibronectin; assay type: cell-based; settings: 40 ng/ml
[8] = system: EPDCs; experiment: EPDC protection by CTGF-D4 under hypoxia (1% oxygen, 48 hr); assay type: cell-based, rat; settings: blocker added

Molecule: N#C/C(=C/c1ccc(O)c(O)c1)C(=O)NCc1ccccc1 [AG490]
- cell number ratio to control cell number ([1]; 1 μM): 96.3±0.9%
- cell number ratio to control cell number ([1]; 5 μM): 89.5±0.9%
- CPC number ([1]; 10 μM, CPCs in CdM from p75MSCs or fibroblasts): inhibitory effect
- cell number ratio to control cell number ([1]; 10 μM): 43.4±2.4%
- CdM-mediated protection of CPCs under hypoxic conditions [2]: abolished CdM-mediated protection

Molecule: COc1cccc(-c2cc(=O)c3ccccc3o2)c1N [PD98059]
- CPC proliferation in CdM ([1]; ERK inhibitor): did not diminish CPC proliferation

Molecule: O=[N+]([O-])c1ccc2c(c1)S(=O)(=O)C=C2 [Stattic, reference compound]
- growth of CPCs in p75MSC CdM ([1]; 10 μM, vs DMSO vehicle, day 2 and 4): abolished
- CdM-mediated protection of CPCs under hypoxic conditions [2]: abolished CdM-mediated protection

Molecule: IGF-1: human Insulin-like growth factor 1
- CPC number after hypoxia [2]: 14,894±559 cells

Molecule: Insulin: recombinant human Insulin, dimer of A-chain and B-chain
- p-Akt in CPCs [3]: induced p-Akt in a dose-responsive manner
- protection of CPCs against 48 hr of hypoxia [2]: did not protect CPCs
- CPC number after hypoxia [2]: 13,507±1,473 cells
- CPC survival and proliferation ([2]; recombinant human Insulin): increased also CPC survival and proliferation

B1: human CTGF: connective tissue growth factor, full-length polypeptide SEQ ID NO: 1 (protein, listed as Homo sapiens)
chain: MTAASMGPVRVAFVVLLALCSRPAVGQNCSGPCRCPDEPAPRCPAGVSLVLDGCGCCRVCAKQLGELCTERDPCDPHKGLFCDFGSPANRKIGVCTAKDGAPCIFGGTVYRSGESFQSSCKYQCTCLDGAVGCMPLCSMDVRLPSPDCPFPRRVKLPGKCCEEWVCDEPKDQTVVGPALAAYRLEDTFGPDPTMIRANCLVQTTEWSACSKTCGMGISTRVTNDNASCRLEKQSRLCMVRPCEADLEENIKKGKKCIRTPKISKPIKFELSGCTSMKTYRAKFCGVCTDGRCCTPHRTTTLPVEFKCPDGEVMKKNMMFIKTCACHYNCPGDNDIFESLYYRKMYGDMA
- p-STAT3 in CPCs [4]: significantly induced p-STAT3

B2: CTGF-D4: recombinant human C-terminal (domain 4) CTGF peptide, SEQ ID NO: 2 (protein, listed as Homo sapiens)
chain: MGKKCIRTPKISKPIKFELSGCTSMKTYRAKFCGVCTDGRCCTPHRTTTLPVEFKCPDGEVMKKNMMFIKTCACHYNCPGDNDIFESLYYRKMYGDMA
- signaling through the canonical Wnt pathway (p-GSK3β, nuclear β-catenin) [5]: promoted signaling through the canonical Wnt pathway
- EMT-like differentiation (SMA, CD90, ETrB protein levels) [6]: promoted EMT-like differentiation
- levels of Von Willebrand Factor [6]: did not seem to be affected
- protection of CPCs against 48 hr of hypoxia [2]: did not protect CPCs
- adhesion of EPDCs to fibronectin [7]: promoted adhesion of EPDCs to fibronectin

B3: Dkk-1: a secreted inhibitor of Lrp6 (protein, UniProt O94907 32-266, looked up)
Dickkopf-related protein 1: TLNSVLNSNAIKNLPPPLGGAAGHPGSAVSAAPGILYPGGNKYQTIDNYQPYPCAEDEECGTDEYCASPTRGGDAGVQICLACRKRRKRCMRHAMCCPGNYCKNGICVSSDQNHFRGEIEETITESFGNDHSTLDGYSRRTTLSSKMYHTKGQEGSVCLRSSDCASGLCCARHFWSKICKPVLKEGQVCTKHRRKGSHGLEIFQRCYCGEGLSCRIQKDHHQASNSSRLHTCQRH
- protection of EPDCs conferred by CTGF-D4 [8]: significantly reduced the protection
